Source: US20220096415A1, “Composition for Improving Cognitive Function” (Demencare Laboratory Inc., priority 2018, published 2022)

Tests used:
[1] = system: neurons from APP-KI mouse; assay: Human Aβ42 secreted by APP-KI mouse neurons; assay type: cell-based; conditions: LA-treated versus c9,t11-CLA-treated nerves, p<0.05, not shown
Excerpt: The amount of Aβ42 generated from endogenous amyloid-β (Aβ) precursor protein APP is usually very small. Thus, it is difficult to accurately quantify Aβ42 secreted from wild-type mouse neurons. Then, the mouse Aβ sequence was changed to a human form (in FIG. 3(B), the mouse and human amino acid sequences). After that, neurons from a knock-in mouse, into which a familial Alzheimer's disease mutation that increases the level of Aβ42 produced was introduced, (Apptm3.1Tcs/Apptm3.1Tcs) (hereinafter, the same as a mouse called APP-KI mouse described in Non-Patent Literature 6: Saito et al. [2014] Nature Neuroscience 17, 661-663) were cultured in a manner similar to the above. Finally, human Aβ42 secreted while the same experiments as in FIG. 3(A) were repeated was quantified (Non-Patent Literature 7: Kimura, Hata, Suzuki [2016] J. Biol. Chem. 291, 24041-24053).

[2] = target: T1, recombinant BACE1 (rBACE1) (Homo sapiens, UniProt P56817); assay: BACE1 activity with recombinant BACE1 in the presence of LA or c9,t11-CLA; assay type: biochemical; conditions: 100 μM; for BACE1 activity compared to just a solvent DMSO: rBACE1, 37° C. 15 min, then substrate 1 h
T1 construct: purchased R&D Systems 931-AS
Protocol: Whether or not c9,t11-CLA directly acted on BACE1 and changed its activity was checked by measuring the BACE1 activity in the presence or absence of LA or c9,t11-CLA while recombinant BACE1 (rBACE1, catalog number 931-AS; R&D Systems, Minneapolis, Minn., USA) was used (FIG. 6). First, 100 μM LA or c9,t11-CLA, which had been dissolved in DMSO, was added to rBACE1, and the mixture was incubated at 37° C. for 15 min. Next, a chromogenic substrate was added and incubated at 37° C. for 1 h. Then, the BACE1 activity was measured.

wild-type mouse neurons = assay: Aβ40 secreted into culture medium by wild-type mouse neurons (sandwich ELISA); assay type: cell-based; conditions: 10 uM, 24 h; compared with LA-added neurons (LA set to 1.0)
Protocol: Neurons in the cerebral cortex and hippocampus were isolated from the fetal brain of wild-type mouse (C57BL6/J) and were cultured in Neurobasal Medium containing 2% B-27 Supplement (Invitrogen), 4 mM Glutamax I, and 5% heat-inactivated horse serum (the other detailed conditions were substantially the same as in the protocol disclosed in Non-Patent Literature 4: Chiba et al., [2014] Mol. Biol. Cell 25, 3569-3580).
Primary culture nerves (5×10^3 cells), which had been cultured by the above procedure for 9 to 12 days (DIV9-12), were cultured for 24 h in each of a culture medium containing 10 uM linoleic acid (LA “L1376”, Sigma-Aldrich, Inc.) or a culture medium containing 10 uM c9,t11-CLA (purity: 98%, ABCAM, Inc.) (the experiment was triplicate: n=3 to 6). Next, for each of a sample using LA or a sample using c9,t11-CLA, mouse amyloid β-protein 40 (Aβ40) secreted into the culture medium was quantified by sandwich ELISA (sELISA). […]
The complex was then reacted with an IgG Fab′ fragment of HRP (Horseradish peroxidase)-labeled mouse/rat Aβ(1-16) sequence-specific (rabbit) antibody (IBL, Inc.: Immuno-Biological Laboratories Co, Ltd.). After that, TMB (3,3′,5,5′-tetramethyl benzidine) was used as a chromogenic substrate for quantification. […] In FIG. 3(A), while the level of Aβ40 secreted when LA was added was set to 1.0, the level of Aβ40 secreted when c9,t11-CLA was added was quantified.

BACE1 = BACE1 activity of wild-type mouse neurons (β-Secretase Activity Assay Kit); assay type: cell-based; conditions: 10 uM, 24 h, compared with LA-added neurons
Protocol: The BACE1 activity of the above wild-type mouse neurons used in the experiments shown in FIG. 3 was measured using a β-Secretase (BACE1) Activity Assay Kit (“ab65357”, Abcam, Inc.) in accordance with the instructions.

wild-type neurons = assay: Western blot of APP, BACE1 and PS1 NTF levels in wild-type neurons; assay type: cell-based, mouse; conditions: c9,t11-CLA versus LA
Protocol: Western blot was used to analyze the level of APP (Aβ precursor, which is a substrate for BACE1), BACE1, PS1 NTF (a catalytic unit of γ-Secretase, which is an enzyme for cleaving CTFβ, an APP C-terminal fragment containing an Aβ sequence cleaved by BACE1, to generate Aβ), and a membrane protein Flotillin (control protein) in the LA-added or c9,t11-CLA-added wild-type neurons. The whole cells were lysed in RIPA buffer (components: 50 mM Tris-HCl [pH 8.0], 150 mM NaCl, 0.5% SDS, 0.5% sodium deoxycholate, and 1% Nonidet P-40). The extracted proteins (15 μg protein) were subjected to electrophoresis using SDS-polyacrylamide gel. Then, Western blot with each antibody was used to analyze APP (with the same as an antibody G369, described in Non-Patent Literature 8: Oishi et al. [1997] Mol. Med. 3, 111-123), BACE1 (with an antibody D10E5; Cell Signaling Technology, Inc.), PS1 NTF (with the same as an antibody Ab14, described in Non-Patent Literature 9: Thinakaran et al. [1996] Neuron, 17, 181-190), and Flotillin-1 (with an antibody 610821, BD Bioscience, Inc.). The protein reacted with each antibody was detected using a Clarity Western ECL substrate (Cat *170-5061; Bio-Rad) and quantified with LAS-4000 (Fujifilm).

AD model mice = AD model mice with oral intake of c9,t11-CLA: brain staining (IL-10, phosphorylated tau, astrocytes, microglia); assay type: in vivo, mouse
neurons = conditions: Non-Patent Literature 1; cited from earlier work
neural stem cells = conditions: Non-Patent Literature 3; cited from earlier work
[3] = hippocampus, oral intake versus no intake

T1 sequence (P56817 46-457 limits assumed): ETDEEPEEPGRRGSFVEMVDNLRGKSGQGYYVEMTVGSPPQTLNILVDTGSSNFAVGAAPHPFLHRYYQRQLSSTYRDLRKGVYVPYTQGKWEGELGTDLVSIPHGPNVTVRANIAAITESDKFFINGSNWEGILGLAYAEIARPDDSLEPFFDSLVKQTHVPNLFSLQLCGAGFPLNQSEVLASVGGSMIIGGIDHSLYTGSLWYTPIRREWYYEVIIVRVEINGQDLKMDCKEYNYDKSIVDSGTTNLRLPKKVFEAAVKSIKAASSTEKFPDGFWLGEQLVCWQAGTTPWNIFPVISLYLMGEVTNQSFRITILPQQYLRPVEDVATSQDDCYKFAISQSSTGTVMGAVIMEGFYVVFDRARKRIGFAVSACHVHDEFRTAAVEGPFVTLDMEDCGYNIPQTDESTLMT

level of human Aβ42 secreted [1]	SMILES	BACE1 activity compared to just a solvent DMSO [2]	level of Aβ produced/secreted (mouse Aβ40) (wild-type mouse neurons)	BACE1 activity of neurons (BACE1)	level of APP (wild-type neurons)	level of BACE1 (wild-type neurons)	level of PS1 NTF (wild-type neurons)	difference in BACE1 activity between LA and c9,t11-CLA ([2]; rBACE1)	Microglia (Iba1 staining) (AD model mice; cortex, CLA intake group)	Microglia (Iba1 staining) (AD model mice; hippocampus, CLA intake group)	number of IL-10-expressing cells (AD model mice; hippocampus, CLA intake group)	Astrocyte staining (AD model mice; [3])	Phosphorylated tau protein staining (AD model mice; [3])	prevention of glutamic acid-induced hyper-excited state and cell death of neurons (neuroprotective effect) (neurons)	effect on growth of neural stem cells (neural stem cells)
significantly lower	CCCCC/C=C\C/C=C\CCCCCCCC(=O)O [LA, linoleic acid, reference compound]	increase in the activity													
	CCCCCC/C=C/C=C\CCCCCCCC(=O)O [c9,t11-CLA, c9,t11-conjugated linoleic acid]	increase in the activity	significantly lower	significantly lower	no observed significant difference	no observed significant difference	no observed significant difference	no observed significant difference	significant increase	significant increase	significantly increased	tended to decrease	tended to decrease	can exert the effects	promoting growth of neural stem cells
	CCCCC/C=C\C=C\CCCCCCCCC(=O)O [t10,c12-CLA, t10,c12-conjugated linoleic acid, reference compound]													fails to exert such effects	inhibition of growth of neural stem cells
